Results as given in paper PMC4281712, “ATPase-dependent auto-phosphorylation of the open condensin hinge diminishes DNA binding” (Open Biology, 2014).

Key:
[1] = molecular target: T1, Cut3–Cut14 (condensin SMC heterodimer; Cut3/SMC4–Cut14/SMC2) (Schizosaccharomyces pombe, UniProt P41003+P41004); assay: inhibition of γ-32P labelling, autoradiography; assay type: biochemical; settings: 1 mM nucleotide pre-incubated 5 min; ATP 8 nM hot, 50 nM cold; 30 min, 30 °C
T1 construct: full-length SMC heterodimer co-overproduced in S. pombe; C-terminal tags kept (Cut14-3HA-His6; Cut3 mutants 8Myc)
T1 sequence (P41004 1-1324): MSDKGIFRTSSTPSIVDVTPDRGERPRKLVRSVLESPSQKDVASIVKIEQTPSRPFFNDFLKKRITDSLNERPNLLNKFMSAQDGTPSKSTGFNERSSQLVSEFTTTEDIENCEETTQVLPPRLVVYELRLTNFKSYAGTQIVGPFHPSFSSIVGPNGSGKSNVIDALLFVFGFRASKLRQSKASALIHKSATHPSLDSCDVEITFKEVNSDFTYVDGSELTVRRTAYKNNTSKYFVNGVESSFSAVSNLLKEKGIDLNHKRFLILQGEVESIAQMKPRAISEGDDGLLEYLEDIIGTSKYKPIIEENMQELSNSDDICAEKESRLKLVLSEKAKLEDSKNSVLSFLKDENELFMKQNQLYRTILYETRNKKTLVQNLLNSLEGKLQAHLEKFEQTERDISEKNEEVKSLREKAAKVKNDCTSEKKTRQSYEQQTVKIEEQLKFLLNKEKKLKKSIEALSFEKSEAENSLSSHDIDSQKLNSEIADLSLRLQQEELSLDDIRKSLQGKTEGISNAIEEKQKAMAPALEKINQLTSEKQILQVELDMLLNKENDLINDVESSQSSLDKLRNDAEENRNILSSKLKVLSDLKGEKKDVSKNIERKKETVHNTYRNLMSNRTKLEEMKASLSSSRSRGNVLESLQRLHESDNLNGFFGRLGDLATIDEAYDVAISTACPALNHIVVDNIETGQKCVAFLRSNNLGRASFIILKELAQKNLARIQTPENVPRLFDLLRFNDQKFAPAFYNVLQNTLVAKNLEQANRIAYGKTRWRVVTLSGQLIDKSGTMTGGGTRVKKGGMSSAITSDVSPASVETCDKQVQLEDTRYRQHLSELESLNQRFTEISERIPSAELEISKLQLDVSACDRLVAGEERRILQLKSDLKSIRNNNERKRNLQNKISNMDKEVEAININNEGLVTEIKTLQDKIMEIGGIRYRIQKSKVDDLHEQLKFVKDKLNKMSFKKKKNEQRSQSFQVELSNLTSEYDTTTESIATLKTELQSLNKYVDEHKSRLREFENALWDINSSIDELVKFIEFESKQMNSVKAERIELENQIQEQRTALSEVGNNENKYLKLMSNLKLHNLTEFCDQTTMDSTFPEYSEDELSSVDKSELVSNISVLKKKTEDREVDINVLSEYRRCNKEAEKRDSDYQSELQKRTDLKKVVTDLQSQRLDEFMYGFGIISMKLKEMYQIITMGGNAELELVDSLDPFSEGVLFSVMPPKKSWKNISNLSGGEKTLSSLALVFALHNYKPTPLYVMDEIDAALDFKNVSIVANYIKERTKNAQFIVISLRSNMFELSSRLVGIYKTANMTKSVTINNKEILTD
T1 sequence (P41003 1-1172): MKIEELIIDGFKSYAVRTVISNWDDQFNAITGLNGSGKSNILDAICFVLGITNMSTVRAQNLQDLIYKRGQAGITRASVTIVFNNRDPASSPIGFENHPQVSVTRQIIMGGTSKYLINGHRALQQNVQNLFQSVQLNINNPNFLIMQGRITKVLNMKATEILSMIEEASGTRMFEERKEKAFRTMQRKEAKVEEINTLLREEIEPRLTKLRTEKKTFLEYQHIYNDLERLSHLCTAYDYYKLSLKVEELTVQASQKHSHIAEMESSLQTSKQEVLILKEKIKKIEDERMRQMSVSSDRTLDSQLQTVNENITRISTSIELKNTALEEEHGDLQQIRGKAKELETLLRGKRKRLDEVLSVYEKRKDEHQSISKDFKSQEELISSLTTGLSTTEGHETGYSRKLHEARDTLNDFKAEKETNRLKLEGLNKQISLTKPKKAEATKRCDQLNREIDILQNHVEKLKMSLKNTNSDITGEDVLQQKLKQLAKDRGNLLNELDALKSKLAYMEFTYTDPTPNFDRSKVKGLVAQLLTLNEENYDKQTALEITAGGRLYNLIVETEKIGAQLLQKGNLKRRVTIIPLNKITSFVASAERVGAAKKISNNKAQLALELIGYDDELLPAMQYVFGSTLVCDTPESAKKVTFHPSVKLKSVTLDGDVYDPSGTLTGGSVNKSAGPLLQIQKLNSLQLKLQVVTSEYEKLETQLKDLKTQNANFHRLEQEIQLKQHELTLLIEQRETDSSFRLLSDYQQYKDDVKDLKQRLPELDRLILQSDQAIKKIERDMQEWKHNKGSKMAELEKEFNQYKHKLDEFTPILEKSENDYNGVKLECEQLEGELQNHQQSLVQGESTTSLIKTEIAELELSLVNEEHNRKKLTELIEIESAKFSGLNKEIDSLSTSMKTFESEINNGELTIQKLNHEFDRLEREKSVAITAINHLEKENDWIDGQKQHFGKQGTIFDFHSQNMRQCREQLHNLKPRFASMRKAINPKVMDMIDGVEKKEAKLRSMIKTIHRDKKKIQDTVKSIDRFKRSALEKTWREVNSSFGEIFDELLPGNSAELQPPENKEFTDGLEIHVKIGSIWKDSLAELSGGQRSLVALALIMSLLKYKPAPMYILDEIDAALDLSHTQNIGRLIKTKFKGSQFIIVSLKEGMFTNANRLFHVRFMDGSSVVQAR

[2] = molecular target: T1, Cut3–Cut14 (condensin SMC heterodimer; Cut3/SMC4–Cut14/SMC2); assay: thiophosphorylation, PNBM alkylation, anti-thiophosphate ester western blot; assay type: biochemical; settings: covalent thiophosphoryl transfer to Cut3; 10 mM ATPγS

Structure (SMILES) | inhibition of γ-32P labelling, autoradiography [1] | thiophosphorylation, PNBM alkylation, anti-thiophosphate ester western blot [2]
Nc1ncnc2c1ncn2[C@@H]1O[C@H](COP(=O)(O)OP(=O)(O)NP(=O)(O)O)[C@@H](O)[C@H]1O [AMP-PNP] | Some labelling occurred in an excess of AMP-PNP | –
Nc1ncnc2c1ncn2[C@@H]1O[C@H](COP(=O)(O)OP(=O)(O)OP(O)(O)=S)[C@@H](O)[C@H]1O [ATPγS] | – | Antibody against ATPγS detected Cut3 protein in the heterodimer after incubation in the presence of ATPγS
